Experiments:
[1] = Oral bioavailability in Cynomolgus monkey at 2 mg/kg measured upto 24 hrs by LC-MS/MS analysis; assay type: ADME, organism-based, Macaca fascicularis; conditions: in vivo
Cytochrome P450 2C8 = target: T1, Cytochrome P450 2C8 (Homo sapiens, UniProt P10632); experiment: Inhibition of CYP2C8 (unknown origin) at >25 uM; assay type: ADME
T1 sequence (P10632 whole entry): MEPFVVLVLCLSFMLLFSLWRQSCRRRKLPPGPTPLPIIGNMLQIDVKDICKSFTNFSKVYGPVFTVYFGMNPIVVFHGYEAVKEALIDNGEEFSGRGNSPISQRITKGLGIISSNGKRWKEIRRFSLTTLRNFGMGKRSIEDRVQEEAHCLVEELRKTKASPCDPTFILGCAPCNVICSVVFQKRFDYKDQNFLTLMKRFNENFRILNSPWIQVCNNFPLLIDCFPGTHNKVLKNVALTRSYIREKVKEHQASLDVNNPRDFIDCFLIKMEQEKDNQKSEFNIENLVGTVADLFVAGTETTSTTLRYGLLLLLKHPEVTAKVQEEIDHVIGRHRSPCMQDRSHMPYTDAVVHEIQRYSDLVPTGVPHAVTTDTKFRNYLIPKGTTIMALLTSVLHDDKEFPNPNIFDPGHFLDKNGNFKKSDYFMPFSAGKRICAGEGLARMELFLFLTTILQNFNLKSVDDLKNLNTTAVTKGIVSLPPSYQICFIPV

[2] = Cmax in Cynomolgus monkey at 2 mg/kg, po measured upto 24 hrs by LC-MS/MS analysis; assay type: ADME, organism-based, Macaca fascicularis; parameters: dose 2 mg/kg, time < 24 hrs, route po; conditions: in vivo
Cytochrome P450 2B6 = target: T2, Cytochrome P450 2B6 (Homo sapiens, UniProt P20813); experiment: Inhibition of CYP2B6 (unknown origin) at >25 uM; assay type: ADME
T2 sequence (P20813 whole entry): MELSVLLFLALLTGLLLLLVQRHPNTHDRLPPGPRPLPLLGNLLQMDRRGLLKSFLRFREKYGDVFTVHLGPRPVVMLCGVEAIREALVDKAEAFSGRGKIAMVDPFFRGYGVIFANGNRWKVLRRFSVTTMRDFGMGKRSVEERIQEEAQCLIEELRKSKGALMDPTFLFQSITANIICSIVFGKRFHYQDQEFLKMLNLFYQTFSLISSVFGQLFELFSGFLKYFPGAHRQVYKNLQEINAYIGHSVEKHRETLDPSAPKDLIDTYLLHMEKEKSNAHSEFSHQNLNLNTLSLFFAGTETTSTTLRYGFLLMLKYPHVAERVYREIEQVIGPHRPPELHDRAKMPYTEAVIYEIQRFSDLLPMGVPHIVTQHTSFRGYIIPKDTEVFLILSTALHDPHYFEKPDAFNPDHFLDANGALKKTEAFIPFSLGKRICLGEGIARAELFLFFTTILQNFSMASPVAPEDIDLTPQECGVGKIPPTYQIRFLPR

[3] = Hepatic blood flow in Sprague-Dawley rat at 0.5 mg/kg, iv measured upto 24 hrs by LC-MS/MS analysis; assay type: ADME, organism-based; conditions: in vivo
[4] = Oral bioavailability in Sprague-Dawley rat at 3 mg/kg measured upto 24 hrs by LC-MS/MS analysis; assay type: ADME, organism-based; conditions: in vivo
[5] = Cmax in Sprague-Dawley rat at 3 mg/kg, po measured upto 24 hrs by LC-MS/MS analysis; assay type: ADME, organism-based; parameters: dose 3 mg/kg, time < 24 hrs, route po; conditions: in vivo
[6] = Volume of distribution at steady state in Sprague-Dawley rat at 0.5 mg/kg, iv measured upto 24 hrs by LC-MS/MS analysis; assay type: ADME, organism-based; conditions: Sprague-Dawley, in vivo, read-out: Vdss
Cytochrome P450 1A2 = target: T3, Cytochrome P450 1A2 (Homo sapiens, UniProt P05177); experiment: Inhibition of CYP1A2 (unknown origin) at >25 uM; assay type: ADME
T3 sequence (P05177 whole entry): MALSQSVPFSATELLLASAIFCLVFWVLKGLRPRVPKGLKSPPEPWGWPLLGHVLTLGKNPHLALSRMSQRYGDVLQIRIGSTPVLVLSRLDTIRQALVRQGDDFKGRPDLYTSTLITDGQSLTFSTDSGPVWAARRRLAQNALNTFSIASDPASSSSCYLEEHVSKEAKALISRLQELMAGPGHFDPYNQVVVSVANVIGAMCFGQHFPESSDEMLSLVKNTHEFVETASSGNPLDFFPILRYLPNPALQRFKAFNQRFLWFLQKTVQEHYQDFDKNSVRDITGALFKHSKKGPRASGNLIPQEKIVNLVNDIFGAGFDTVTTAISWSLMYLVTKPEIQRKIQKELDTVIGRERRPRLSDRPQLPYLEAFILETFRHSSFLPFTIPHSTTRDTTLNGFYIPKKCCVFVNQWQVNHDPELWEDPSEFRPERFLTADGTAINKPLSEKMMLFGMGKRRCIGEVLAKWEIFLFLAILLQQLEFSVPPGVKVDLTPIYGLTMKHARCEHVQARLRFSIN

[7] = Intrinsic clearance in human liver microsomes at 1 uM measured upto 30 mins by LC/MS analysis; assay type: ADME, Microsome; conditions: read-out: CLH (converted)
[8] = Volume of distribution at steady state in Cynomolgus monkey at 0.3 mg/kg, iv measured upto 24 hrs by LC-MS/MS analysis; assay type: ADME, organism-based, Macaca fascicularis; conditions: in vivo, read-out: Vdss
[9] = Hepatic blood flow in Cynomolgus monkey at 0.3 mg/kg, iv measured upto 24 hrs by LC-MS/MS analysis; assay type: ADME, organism-based, Macaca fascicularis; conditions: in vivo
[10] = AUC in Sprague-Dawley rat at 3 mg/kg, po measured upto 24 hrs by LC-MS/MS analysis; assay type: ADME, organism-based; parameters: dose 3 mg/kg, time < 24 hrs, route po; conditions: in vivo
hERG (KCNH2) = hERG (KCNH2) (Homo sapiens, UniProt Q12809); experiment: Displacement of [3H]Dofetilide from human ERG at 10 uM incubated for 24 hrs by filter binding assay relative to control; assay type: toxicity; conditions: probe [3H]dofetilide
Sequence of hERG (KCNH2) (Q12809 whole entry): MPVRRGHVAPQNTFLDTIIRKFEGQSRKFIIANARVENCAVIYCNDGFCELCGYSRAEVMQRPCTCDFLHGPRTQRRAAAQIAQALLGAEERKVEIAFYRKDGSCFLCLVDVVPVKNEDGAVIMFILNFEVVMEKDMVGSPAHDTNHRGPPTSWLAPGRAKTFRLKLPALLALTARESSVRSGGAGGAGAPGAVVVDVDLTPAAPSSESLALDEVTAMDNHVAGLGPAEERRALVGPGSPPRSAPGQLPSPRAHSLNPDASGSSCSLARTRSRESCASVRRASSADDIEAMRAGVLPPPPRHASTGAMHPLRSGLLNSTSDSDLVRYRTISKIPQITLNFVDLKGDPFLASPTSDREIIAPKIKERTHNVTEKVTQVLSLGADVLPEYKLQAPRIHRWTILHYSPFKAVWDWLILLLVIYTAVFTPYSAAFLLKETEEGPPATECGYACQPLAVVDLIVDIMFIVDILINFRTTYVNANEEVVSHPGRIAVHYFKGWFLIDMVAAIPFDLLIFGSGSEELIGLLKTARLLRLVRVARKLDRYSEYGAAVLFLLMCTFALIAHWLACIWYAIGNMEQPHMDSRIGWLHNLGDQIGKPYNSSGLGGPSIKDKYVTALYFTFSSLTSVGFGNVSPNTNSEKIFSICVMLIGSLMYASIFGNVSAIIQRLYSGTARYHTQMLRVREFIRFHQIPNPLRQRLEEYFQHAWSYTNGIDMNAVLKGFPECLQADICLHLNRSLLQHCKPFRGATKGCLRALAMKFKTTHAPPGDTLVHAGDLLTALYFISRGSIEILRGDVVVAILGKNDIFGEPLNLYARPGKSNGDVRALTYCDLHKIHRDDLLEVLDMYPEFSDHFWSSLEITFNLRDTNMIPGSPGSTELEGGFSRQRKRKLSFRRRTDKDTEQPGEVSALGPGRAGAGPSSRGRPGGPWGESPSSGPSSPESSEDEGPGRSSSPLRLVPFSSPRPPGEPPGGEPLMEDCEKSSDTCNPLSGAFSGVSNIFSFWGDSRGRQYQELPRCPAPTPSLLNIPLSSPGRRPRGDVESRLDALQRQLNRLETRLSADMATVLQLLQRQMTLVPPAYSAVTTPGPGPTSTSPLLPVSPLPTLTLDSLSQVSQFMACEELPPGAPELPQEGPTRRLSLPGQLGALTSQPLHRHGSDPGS

[11] = target: Cyclin-dependent kinase 2 (Homo sapiens, UniProt P24941); experiment: Inhibition of CDK2 in human COV318 cells incubated for overnight in presence of human whole blood by HTRF assay; assay type: cell-based
Cytochrome P450 2C9 = Cytochrome P450 2C9 (Homo sapiens, UniProt P11712); experiment: Inhibition of CYP2C9 (unknown origin) at >25 uM; assay type: ADME
Sequence of Cytochrome P450 2C9 (P11712 whole entry): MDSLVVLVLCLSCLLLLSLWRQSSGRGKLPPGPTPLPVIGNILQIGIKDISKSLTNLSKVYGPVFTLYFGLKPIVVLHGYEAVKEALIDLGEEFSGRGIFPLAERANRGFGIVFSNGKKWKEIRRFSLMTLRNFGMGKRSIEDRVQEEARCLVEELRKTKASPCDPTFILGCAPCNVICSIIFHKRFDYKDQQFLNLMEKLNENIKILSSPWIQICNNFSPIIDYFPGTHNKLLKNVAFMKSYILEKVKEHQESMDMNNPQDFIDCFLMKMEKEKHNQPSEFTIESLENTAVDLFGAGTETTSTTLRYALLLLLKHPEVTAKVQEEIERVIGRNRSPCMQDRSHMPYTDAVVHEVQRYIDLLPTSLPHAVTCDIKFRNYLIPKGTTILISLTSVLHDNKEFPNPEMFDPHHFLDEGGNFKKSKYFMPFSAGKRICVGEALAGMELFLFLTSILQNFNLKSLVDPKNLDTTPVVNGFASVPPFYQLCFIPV

Cytochrome P450 3A4 = Cytochrome P450 3A4 (Homo sapiens, UniProt P08684); experiment: Inhibition of CYP3A4 (unknown origin) at >25 uM; assay type: ADME
Sequence of Cytochrome P450 3A4 (P08684 whole entry): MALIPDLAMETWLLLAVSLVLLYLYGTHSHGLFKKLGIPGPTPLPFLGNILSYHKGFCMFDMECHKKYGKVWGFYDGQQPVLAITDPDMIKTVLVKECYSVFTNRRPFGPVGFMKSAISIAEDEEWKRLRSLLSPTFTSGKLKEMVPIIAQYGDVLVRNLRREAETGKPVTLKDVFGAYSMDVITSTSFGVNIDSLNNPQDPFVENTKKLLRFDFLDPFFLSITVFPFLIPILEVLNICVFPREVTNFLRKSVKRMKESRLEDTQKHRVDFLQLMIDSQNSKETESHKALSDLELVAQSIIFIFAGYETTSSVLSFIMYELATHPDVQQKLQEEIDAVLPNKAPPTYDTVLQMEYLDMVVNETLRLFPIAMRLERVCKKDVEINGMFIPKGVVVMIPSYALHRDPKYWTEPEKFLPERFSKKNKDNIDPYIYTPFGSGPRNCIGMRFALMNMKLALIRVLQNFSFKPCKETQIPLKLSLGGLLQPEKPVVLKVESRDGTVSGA

Cytochrome P450 2D6 = Cytochrome P450 2D6 (Homo sapiens, UniProt P10635); experiment: Inhibition of CYP2D6 (unknown origin) at >25 uM; assay type: ADME
Sequence of Cytochrome P450 2D6 (P10635 whole entry): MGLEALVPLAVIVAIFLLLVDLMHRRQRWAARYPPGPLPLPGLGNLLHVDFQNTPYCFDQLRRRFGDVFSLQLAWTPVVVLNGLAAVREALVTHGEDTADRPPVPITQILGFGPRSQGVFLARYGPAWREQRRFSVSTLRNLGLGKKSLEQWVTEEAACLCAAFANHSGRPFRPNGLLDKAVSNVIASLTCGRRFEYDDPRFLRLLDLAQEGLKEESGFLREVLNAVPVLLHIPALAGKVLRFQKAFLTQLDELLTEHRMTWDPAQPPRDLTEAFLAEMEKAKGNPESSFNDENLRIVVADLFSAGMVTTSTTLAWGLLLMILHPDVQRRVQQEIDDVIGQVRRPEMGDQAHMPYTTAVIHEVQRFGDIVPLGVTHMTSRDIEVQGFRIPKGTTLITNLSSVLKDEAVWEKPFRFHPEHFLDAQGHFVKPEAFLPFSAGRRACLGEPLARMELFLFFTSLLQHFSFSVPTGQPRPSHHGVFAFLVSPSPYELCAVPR

[12] = AUC in Cynomolgus monkey at 2 mg/kg, po measured upto 24 hrs by LC-MS/MS analysis; assay type: ADME, organism-based, Macaca fascicularis; parameters: dose 2 mg/kg, time < 24 hrs, route po; conditions: in vivo
Cytochrome P450 2C19 = Cytochrome P450 2C19 (Homo sapiens, UniProt P33261); experiment: Inhibition of CYP2C19 (unknown origin) at >25 uM; assay type: ADME
Sequence of Cytochrome P450 2C19 (P33261 whole entry): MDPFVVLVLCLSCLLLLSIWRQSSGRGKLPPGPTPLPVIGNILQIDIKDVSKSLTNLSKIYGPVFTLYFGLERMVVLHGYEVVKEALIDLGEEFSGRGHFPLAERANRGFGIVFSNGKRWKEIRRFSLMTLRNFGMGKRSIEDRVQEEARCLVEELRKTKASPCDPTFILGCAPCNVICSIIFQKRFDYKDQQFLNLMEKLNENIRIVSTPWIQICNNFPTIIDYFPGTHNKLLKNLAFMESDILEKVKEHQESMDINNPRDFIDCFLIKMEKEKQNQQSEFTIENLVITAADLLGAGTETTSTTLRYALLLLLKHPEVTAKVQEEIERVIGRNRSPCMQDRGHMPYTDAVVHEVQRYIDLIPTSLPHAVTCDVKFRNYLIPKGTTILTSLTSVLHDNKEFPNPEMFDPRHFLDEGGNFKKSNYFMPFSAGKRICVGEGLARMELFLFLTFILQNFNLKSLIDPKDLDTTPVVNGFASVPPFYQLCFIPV

Homo sapiens [13] = species: Homo sapiens; experiment: Selectivity ratio of IC50 for inhibition of CDK9 (unknown origin) to IC50 for inhibition recombinant human N-terminal GST-tagged full-length CDK2/Flag-tagged cyclinE1 expressed in baculovirus expression system
Homo sapiens [14] = species: Homo sapiens; experiment: Selectivity ratio of IC50 for inhibition of CDK4 (unknown origin) to IC50 for inhibition recombinant human N-terminal GST-tagged full-length CDK2/Flag-tagged cyclinE1 expressed in baculovirus expression system
[15] = target: Cyclin-dependent kinase 2/cyclin E1 (Homo sapiens, UniProt P24941); experiment: Inhibition of recombinant human N-terminal GST-tagged full-length CDK2/Flag-tagged cyclinE1 expressed in baculovirus expression system using eIF4E-binding protein-1 peptide as substrate incubated for 1 hr in presence of ATP by HTRF assay
Homo sapiens [16] = species: Homo sapiens; experiment: Selectivity ratio of IC50 for inhibition of CDK1 (unknown origin) to IC50 for inhibition recombinant human N-terminal GST-tagged full-length CDK2/Flag-tagged cyclinE1 expressed in baculovirus expression system
Homo sapiens [17] = species: Homo sapiens; experiment: Selectivity ratio of IC50 for inhibition of CDK7 (unknown origin) to IC50 for inhibition recombinant human N-terminal GST-tagged full-length CDK2/Flag-tagged cyclinE1 expressed in baculovirus expression system
[18] = Solubility of compound; assay type: physicochemical
Homo sapiens [19] = species: Homo sapiens; experiment: Selectivity ratio of IC50 for inhibition of CDK6/cyclin D1 (unknown origin) to IC50 for inhibition recombinant human N-terminal GST-tagged full-length CDK2/Flag-tagged cyclinE1 expressed in baculovirus expression system
Homo sapiens [20] = species: Homo sapiens; experiment: Selectivity ratio of IC50 for inhibition of CDK6 (unknown origin) to IC50 for inhibition recombinant human N-terminal GST-tagged full-length CDK2/Flag-tagged cyclinE1 expressed in baculovirus expression system
Homo sapiens [21] = species: Homo sapiens; experiment: Selectivity ratio of IC50 for inhibition of CDK4/cyclin D1 (unknown origin) to IC50 for inhibition recombinant human N-terminal GST-tagged full-length CDK2/Flag-tagged cyclinE1 expressed in baculovirus expression system
[22] = Metabolic stability in Sprague-Dawley rat liver microsomes assessed as compound oxidation at 5 uM measured upto 30 mins by HPLC/MS analysis; assay type: ADME, Microsome; conditions: 0.5 h
Homo sapiens [23] = species: Homo sapiens; experiment: Selectivity ratio of IC50 for inhibition of CDK1/cyclin B (unknown origin) to IC50 for inhibition recombinant human N-terminal GST-tagged full-length CDK2/Flag-tagged cyclinE1 expressed in baculovirus expression system
[24] = Metabolic stability in Sprague-Dawley rat liver microsomes assessed as compound demethylation at 5 uM measured upto 30 mins by HPLC/MS analysis; assay type: ADME, Microsome; conditions: 0.5 h
[25] = Metabolic stability in human liver microsomes assessed as compound oxidation at 5 uM measured upto 30 mins by HPLC/MS analysis; assay type: ADME, Microsome; conditions: microsomes, 0.5 h, 5 µM
[26] = Metabolic stability in Cynomolgus monkey liver microsomes assessed as remaining parent compound at 5 uM measured upto 30 mins by HPLC/MS analysis; assay type: ADME, Macaca fascicularis, Microsome; conditions: 0.5 h
[27] = Metabolic stability in Cynomolgus monkey liver microsomes assessed as compound oxidation at 5 uM measured upto 30 mins by HPLC/MS analysis; assay type: ADME, Macaca fascicularis, Microsome; conditions: 0.5 h
[28] = Metabolic stability in human liver microsomes assessed as remaining parent compound at 5 uM measured upto 30 mins by HPLC/MS analysis; assay type: ADME, Microsome; conditions: microsomes, 0.5 h, 5 µM
[29] = Metabolic stability in human liver microsomes assessed as compound demethylation at 5 uM measured upto 30 mins by HPLC/MS analysis; assay type: ADME, Microsome; conditions: 0.5 h
[30] = Metabolic stability in Sprague-Dawley rat liver microsomes assessed as remaining parent compound at 5 uM measured upto 30 mins by HPLC/MS analysis; assay type: ADME, Microsome; conditions: 0.5 h
[31] = Metabolic stability in Cynomolgus monkey liver microsomes assessed as compound demethylation at 5 uM measured upto 30 mins by HPLC/MS analysis; assay type: ADME, Macaca fascicularis, Microsome; conditions: 0.5 h

Row | Structure (SMILES) | bioavailability [1] [%] | inhibition (INH) (Cytochrome P450 2C8) | Cmax [2] [nM] | inhibition (INH) (Cytochrome P450 2B6) | QH [3] [%] | bioavailability [4] [%] | Cmax [5] [nM] | Vd [6] [L/kg] | inhibition (INH) (Cytochrome P450 1A2) | predicted hepatic clearance at 1 µM [7] [mL/min/kg] | Vd [8] [L/kg] | QH [9] [%] | AUC at 24 h [10] [µM·h] | inhibition at 24 h, 10 µM (hERG (KCNH2)) [%] | IC50 [11] [nM] | inhibition (INH) (Cytochrome P450 2C9) | inhibition (INH) (Cytochrome P450 3A4) | inhibition (INH) (Cytochrome P450 2D6) | AUC at 24 h [12] [µM·h] | inhibition (INH) (Cytochrome P450 2C19) | also measured
1 | [2H]C([2H])([2H])NS(=O)(=O)c1ccc(Nc2ncc3c(n2)N([C@@H]2CCC[C@@H](O)C2)C(=O)C32CC2)cc1 | 100 | Active | 138 | Active | > 100 | 100 | 992 | 1.1 | Active | 11.7 | 3.5 | 70 | 1.15 | 9.7 | 642 | Active | Active | Active | 0.739 | Active | 
2 | Cn1cc(S(=O)(=O)N2CCC(Nc3ncc4c(n3)N([C@@H]3CCC[C@@H](O)C3)C(=O)C43CC3)CC2)cn1 | 12 | Active | 56 | Active | 96 | 59 | 562 | 2 | Active | 16.7 | 1.2 | 48 | 1.13 | 7.2 | 316 | Active | Active | Active | 0.388 | Active | Ratio IC50 (Homo sapiens [13]): 2500; Ratio IC50 (Homo sapiens [14]): 110; IC50 [15]: 2 nM; Ratio IC50 (Homo sapiens [16]): 660; Ratio IC50 (Homo sapiens [17]): 1100; solubility [18]: > 400 µg/mL; Ratio IC50 (Homo sapiens [19]): 35; Ratio IC50 (Homo sapiens [20]): 35; Ratio IC50 (Homo sapiens [21]): 110
3 | CNS(=O)(=O)c1ccc(Nc2ncc3c(n2)N([C@@H]2CCC[C@@]2(C)O)C(=O)C32CC2)cc1 (relative stereo) |  |  |  |  |  |  |  |  |  | 13.3 |  |  |  |  | 350 |  |  |  |  |  | Drug metabolism [22]: 74%; Ratio IC50 (Homo sapiens [13]; tested as the 2H-labelled form): 2800; Ratio IC50 (Homo sapiens [14]; tested as the 2H-labelled form): 240; Ratio IC50 (Homo sapiens [23]): 520; Drug metabolism [24]: 35%; Drug metabolism [25]: 6%; Stability [26]: 0.1%; Drug metabolism [27]: 8%; IC50 [15]: 1.2 nM; Ratio IC50 (Homo sapiens [16]; tested as the 2H-labelled form): 490; Stability [28]: 68%; Drug metabolism [29]: 26%; Stability [30]: 0.1%; Drug metabolism [31]: 98%; Ratio IC50 (Homo sapiens [19]): 88; Ratio IC50 (Homo sapiens [20]; tested as the 2H-labelled form): 95; Ratio IC50 (Homo sapiens [21]): 230

— ChEMBL document CHEMBL5126669, “Discovery of 5,7-Dihydro-6H-pyrrolo[2,3-d]pyrimidin-6-ones as Highly Selective CDK2 Inhibitors” (ACS Med Chem Lett, 2022)
